US20130071897A1, “METHOD FOR CONTROLLING UNDESIRABLE BYPRODUCTS FORMATION CAUSED BY CONTAMINATING ORGANISMS IN THE PRODUCTION OF ETHANOL FROM SYNGAS” (COSKATA, INC., priority 2011, published 2013)
Several values for one entry are separate records, joined by “and”; a condition that tells them apart may be missing. Equal values may be shown once.

Tests used:
C. autoethanogenum = test: Toxicity to C. autoethanogenum by batch fermentation using syngas substrate, optical density; format: cell-based, Clostridium autoethanogenum; conditions: for O.D. Response of Various Inhibitors on C. autoethanogenum: Table 21, one value per compound; for O.D. Response to Various Inhibitors: duplicates A and B, amount not given
Method: In this example various crotonate-like compounds on are evaluated for toxicity to C. autoethanogenum by batch fermentation using syngas substrate. The batch fermentations are conducted by anoxically filling 100 mL serum bottles with 10 mL of media having the composition given in Tables 12 and 13. Duplicate runs are conducted for each concentration. The compounds are: • C-1 Ethyl 4,4,4-trifluoro-3-(trifluoromethyl)crotonate • C-4 4,4,4-Trifluorocrotonamide • C-9 Ethyl 4,4,4-Trifluoro-3-(amino)crotonate • C-18 3 trifluoromethyl-4-methoxybenzoate.
Each bottle is inoculated with 1.0 mL of seed culture inoculum from an active fermenter using syngas substrate and containing Clostridium autoethanogenum, which inoculum has an OD of about 4.92 (which upon a 10 times dilution provides a starting OD for the fermentation of about 0.49). The bottles are gased with syngas to about 100 kilopascals and maintained at a temperature of 37° C. The bottles are regassed with syngas every 8 to 12 hours. The syngas has the approximate composition set forth in Examples 6 to 10. Twenty four hours after inoculation of the bottles with the bacteria, the compounds are added to different bottles as a solution in 50 μL of N-methylpyrrolidone in the amounts indicated in Tables 20 and 21. The fermentation process is allowed to progress at 37° C. At selected intervals of time, bacterial growth is measured by reading the OD of the fermentation liquid using a Thermo Spectronic Genesys 20 spectrophotometer. Optical density is measured by anoxically removing an aliquot of fermentation liquid and adding it to a disposable cuvette. OD's ranging between 0.01 and 0.4 are measured using fermentation liquid directly, while OD's greater than 0.4 are measure after performing a 1/10 dilution with water.

C. coskatii = test: Balch tube batch growth of homoacetogen C. coskatii on fructose, optical density; format: cell-based; conditions: added 21 h after inoculation
Method: Compounds A and D were again tested to determine their effect on another known homoacetogen. Each compound was tested in a series of batch experiments to determine the growth response of the homoacetogen to the presence of the compound at varying concentrations. These batch experiments were again all conducted by anoxically filling a Balch tube with 5 ml of a fermentation medium having the composition given in Tables 2 and 3. To expedite results, these batch experiments used fructose as the growth nutrient source for bacteria. Thus, the media included 5 g/L of fructose.
Each tube was inoculated with 0.5 ml of the same strain of C. coskatii bacteria seed culture inoculum. The tubes were maintained at a temperature of 37° C. Twenty one hours after the inoculation of the tube with the bacteria, the different crotonate derivatives from Table 1 were added to different tubes in the amounts indicated in Table 5. This was at a time of early to mid-log phase growth for the bacteria. Each fermentation of the bacteria in the media at the different concentration of crotonate derivatives were allowed to progress and were monitored to determine the bacteria growth at selected intervals of time varying from approximately 20 hours to 50 hours. Growth at the intervals was determined by measurement of the OD in the manner described in Example 1. The ability of a tube fermentation at a particular concentration of crotonate derivative to reach a predetermined optical density was recorded in Table 5. Table 5 indicates the presence of bacterial growth to an OD of approximately 1.6 or above with a “+”. All the samples of C. Coskatii reached a relatively high OD after a time of only 50 hours.

[1] = system: Clostridium tyrobutyricum; test: Butyric acid by gas chromatography in Clostridium tyrobutyricum batch fermentations; format: cell-based; conditions: 5 mM, duplicates A and B
Method: The concentration of butyric acid is determined by gas chromatography for several of the above samples at the stated points in time. The butyrate production is calculated based upon peak area calculations generated by the gas chromatograph. At 11 hours, the concentration of butyric acid for each of the controls is about 0.95 gram per liter, and the concentration of butyric acid for the samples containing 500 ppm of the inhibitor are about 0.6 gram per liter.
The concentration of butyric acid is determined by gas chromatography using the procedure set forth in Example 13. The control is reported only in Table 18.

[2] = system: Clostridium carboxydivorans; test: Balch tube batch growth of heteroacetogenic bacteria Clostridium carboxydivorans on fructose, optical density; format: cell-based; design: key to Optical density valuation of C. carboxidivorans: +: bacterial growth to an OD of approximately 1.8; +/−: one duplicate test tube showed a + indication and the other showed an optical density of less than 0.5; conditions: for Optical density valuation of C. carboxidivorans: added 20 h after inoculation; for Inhibition effect for reducing butyrogen growth: summary of Examples 1-5
Method: Similar experiments were conducted to determine the effect of the crotonate derivatives on heteroacetogenic bacteria. Selected crotonate derivatives were tested in a series of batch experiments to determine the growth response of butyrogens to the presence of the compounds at varying concentrations. The batch experiments were all conducted by anoxically filling a 20 ml Balch tube with 5 ml of a fermentation medium having the composition given in Tables 2 and 3. The media included 0.5 v/v final concentration of a fructose substrate. For each of the crotonate concentrations tested, duplicate test tubes were prepared.
Each tube was inoculated with 0.5 ml of the heteroacetogenic bacteria Clostridium carboxydivorans. The tubes were maintained at a temperature of 37° C. At a time 20 hours after the inoculation of the bacteria different crotonate derivatives from Table 1 were added to different tubes in the amounts indicated in Table 7. This was at a time of early to mid-log phase growth. Each fermentation of the bacteria in the media at the different concentration of crotonate derivatives were allowed to progress and were monitored to determine the bacteria growth at selected intervals of time varying from approximately 20 hours to 54 hours. Growth at the different intervals was measured by reading the optical density (OD) of the fermentation liquid. Optical density was measured as described in Example 1. The ability of a tube fermentation at a particular concentration of crotonate derivative to reach a predetermined optical density was recorded in Table 7. Table 7 indicates the presence of bacterial growth to an OD of approximately 1.8 with a “+”.
Compound A was tested again in set of experiments in all respects the same as that described for Example 4 except that compound A was added to Balch tubes in the amounts indicated in Table 7 at a time 5.5 hours after the inoculation of the bacteria. This was at a time in early log phase growth. In this case the Balch tube that contained no compound A reached an OD of 2 after 29 hours or less.

[3] = 0 Hours, added 24 h after inoculation
[4] = 2.5 Hours, added 24 h after inoculation
[5] = 6.5 Hours, added 24 h after inoculation
[6] = 24.5 Hours, added 24 h after inoculation

SMILES | O.D. Response of Various Inhibitors on C. autoethanogenum (C. autoethanogenum; [3]) | O.D. Response of Various Inhibitors on C. autoethanogenum (C. autoethanogenum; [4]) | O.D. Response of Various Inhibitors on C. autoethanogenum (C. autoethanogenum; [5]) | O.D. Response of Various Inhibitors on C. autoethanogenum (C. autoethanogenum; [6]) | O.D. Response of Various Inhibitors on C. autoethanogenum (C. autoethanogenum; 30.5 Hours) | O.D. Response of Various Inhibitors on C. autoethanogenum (C. autoethanogenum; 47.5 Hours) | O.D. Response of Various Inhibitors on C. autoethanogenum (C. autoethanogenum; 56 Hours) | O.D. Response to Various Inhibitors (C. autoethanogenum; [3]) | Optical density valuation of C. coskatii (C. coskatii; 100 ppm(m)) | Optical density valuation of C. coskatii (C. coskatii; 500 ppm(m)) | Optical density valuation of C. coskatii (C. coskatii; 1000 ppm(m)) | Optical density valuation of C. carboxidivorans ([2]; 100 ppm(m)) | Optical density valuation of C. carboxidivorans ([2]; 500 ppm(m)) | Optical density valuation of C. carboxidivorans ([2]; 1000 ppm(m)) | Inhibition effect for reducing butyrogen growth [2] | further results
CCOC(=O)/C=C(\N)C(F)(F)F [B, ethyl-3-amino-4,4,4-trifluorocrotonate] | 0.49 | 0.41 | 0.44 | 1.06 | 1.38 | 1.90 | 1.98 | 0.49 |  |  |  |  |  |  |  | O.D. Response to Various Inhibitors (C. autoethanogenum; 2.5 Hours, added 24 h after inoculation, listed as C-9): 0.40 and 0.42; O.D. Response to Various Inhibitors (C. autoethanogenum; 6.5 Hours, added 24 h after inoculation, listed as C-9): 0.42 and 0.46; O.D. Response to Various Inhibitors (C. autoethanogenum; 24.5 Hours, added 24 h after inoculation, listed as C-9): 1.14 and 0.97; O.D. Response to Various Inhibitors (C. autoethanogenum; 30.5 Hours, added 24 h after inoculation, listed as C-9): 1.28 and 1.47; O.D. Response to Various Inhibitors (C. autoethanogenum; 47.5 Hours, added 24 h after inoculation, listed as C-9): 1.67 and 2.12
CCOC(=O)C=C(C(F)(F)F)C(F)(F)F [Compound A, ethyl 4,4,4-trifluoro-3-(trifluoromethyl)crotonate] | 0.49 | 0.44 | 0.44 | 1.12 | 1.18 | 0.66 | 0.58 | 0.49 | + (bacterial growth to an OD of approximately 1.6 or above) | + (bacterial growth to an OD of approximately 1.6 or above) | + (bacterial growth to an OD of approximately 1.6 or above) | + (bacterial growth to an OD of approximately 1.8) | + (bacterial growth to an OD of approximately 1.8) | + (bacterial growth to an OD of approximately 1.8) | showed inhibition effect | O.D. Response to Various Inhibitors (C. autoethanogenum; 2.5 Hours, added 24 h after inoculation, listed as C-1): 0.42 and 0.46; O.D. Response to Various Inhibitors (C. autoethanogenum; 6.5 Hours, added 24 h after inoculation, listed as C-1): 0.42 and 0.46; O.D. Response to Various Inhibitors (C. autoethanogenum; 24.5 Hours, added 24 h after inoculation, listed as C-1): 1.17 and 1.08; O.D. Response to Various Inhibitors (C. autoethanogenum; 30.5 Hours, added 24 h after inoculation, listed as C-1): 1.15 and 1.22; O.D. Response to Various Inhibitors (C. autoethanogenum; 47.5 Hours, added 24 h after inoculation, listed as C-1): 0.66 and 0.67; Butyrate Production ([1]; 4.5 Hours): 0.04 grams per liter; Butyrate Production ([1]; 6 Hours): 0.06 grams per liter and 0.05 grams per liter; Butyrate Production ([1]; 24 Hours): 0.10 grams per liter and 0.08 grams per liter; OD of C. carboxidivorans tube fermentations ([2]; 500 and 1000 ppm added 5.5 hours after inoculation): ≤ 0.5
O=C(O)C=C(C(F)(F)F)C(F)(F)F [D, 4,4,4-trifluoro-3-(trifluoromethyl)crotonic acid] |  |  |  |  |  |  |  |  | + (bacterial growth to an OD of approximately 1.6 or above) | + (bacterial growth to an OD of approximately 1.6 or above) | + (bacterial growth to an OD of approximately 1.6 or above) | + (bacterial growth to an OD of approximately 1.8) | + (bacterial growth to an OD of approximately 1.8) | +/− | showed inhibition effect | 
